Calls of active or inactive are those of the source. The calls are words filed in the database; no cut-off is given here.
How the values were obtained:
[1] = system: Spodoptera exigua; assay: Insecticidal activity against Spodoptera exigua third-instar larvae infested on compound pre-treated cabbage leaves assessed as mortality at 25 ug/mL measured 3 days post compound treatment by leaf-dipping assay; format: functional
[2] = system: Spodoptera exigua; assay: Insecticidal activity against Spodoptera exigua third-instar larvae infested on compound pre-treated cabbage leaves assessed as mortality at 50 ug/mL measured 3 days post compound treatment by leaf-dipping assay; format: functional
[3] = system: Spodoptera exigua; assay: Insecticidal activity against Spodoptera exigua third-instar larvae infested on compound pre-treated cabbage leaves assessed as mortality at 100 ug/mL measured 3 days post compound treatment by leaf-dipping assay; format: functional
[4] = system: Spodoptera exigua; assay: Insecticidal activity against Spodoptera exigua third-instar larvae infested on compound pre-treated cabbage leaves assessed as mortality at 200 ug/mL measured 3 days post compound treatment by leaf-dipping assay; format: functional
[5] = system: Plutella xylostella; assay: Insecticidal activity against Plutella xylostella (diamondback moth) second-instar larvae infested on compound pre-treated cabbage leaves assessed as mortality at 100 ug/mL measured 3 days post compound treatment by leaf-dipping assay; format: functional
[6] = system: Plutella xylostella; assay: Insecticidal activity against Plutella xylostella (diamondback moth) second-instar larvae infested on compound pre-treated cabbage leaves assessed as mortality at 200 ug/mL measured 3 days post compound treatment by leaf-dipping assay; format: functional
[7] = system: Culex pipiens pallens; assay: Insecticidal activity against Culex pipiens pallens (mosquito) fourth-instar larvae assessed as mortality at 2 ug/mL measured 72 hr post compound treatment; format: functional
[8] = system: Mythimna separata; assay: Insecticidal activity against fourth-instar larvae of Mythimna separata (Oriental armyworm) reared on compound pre-treated corn leaves assessed as mortality at 50 ug/mL measured 72 hr post compound treatment by leaf-dipping assay; format: functional
[9] = system: Mythimna separata; assay: Insecticidal activity against fourth-instar larvae of Mythimna separata (Oriental armyworm) reared on compound pre-treated corn leaves assessed as mortality at 100 ug/mL measured 72 hr post compound treatment by leaf-dipping assay; format: functional
[10] = system: Mythimna separata; assay: Insecticidal activity against fourth-instar larvae of Mythimna separata (Oriental armyworm) reared on compound pre-treated corn leaves assessed as mortality at 200 ug/mL measured 72 hr post compound treatment by leaf-dipping assay; format: functional
[11] = system: Plutella xylostella; assay: Insecticidal activity against Plutella xylostella (diamondback moth) second-instar larvae infested on compound pre-treated cabbage leaves assessed as mortality at 25 ug/mL measured 3 days post compound treatment by leaf-dipping assay; format: functional
[12] = system: Plutella xylostella; assay: Insecticidal activity against Plutella xylostella (diamondback moth) second-instar larvae infested on compound pre-treated cabbage leaves assessed as mortality at 50 ug/mL measured 3 days post compound treatment by leaf-dipping assay; format: functional
[13] = system: Mythimna separata; assay: Insecticidal activity against fourth-instar larvae of Mythimna separata (Oriental armyworm) reared on compound pre-treated corn leaves assessed as mortality at 10 ug/mL measured 72 hr post compound treatment by leaf-dipping assay; format: functional
[14] = system: Mythimna separata; assay: Insecticidal activity against fourth-instar larvae of Mythimna separata (Oriental armyworm) reared on compound pre-treated corn leaves assessed as mortality at 25 ug/mL measured 72 hr post compound treatment by leaf-dipping assay; format: functional
[15] = system: Mythimna separata; assay: Insecticidal activity against fourth-instar larvae of Mythimna separata (Oriental armyworm) reared on compound pre-treated corn leaves assessed as induction of abnormal symptoms at 10 ug/mL measured 36 hr post compound treatment by leaf-dipping assay; format: functional, organism-based
[16] = system: Mythimna separata; assay: Insecticidal activity against fourth-instar larvae of Mythimna separata (Oriental armyworm) reared on compound pre-treated corn leaves assessed as mortality at 5 ug/mL measured 72 hr post compound treatment by leaf-dipping assay; format: functional

SMILES: O=C(Nc1ccc([N+](=O)[O-])cc1Br)c1cc(Br)nn1-c1ncccc1Cl
- mortality at 25 µg/mL [1]: 100%
- mortality at 50 µg/mL [2]: 100%
- mortality at 100 µg/mL [3]: 100%
- mortality at 200 µg/mL [4]: 100%
- mortality at 100 µg/mL [5]: 98%
- mortality at 200 µg/mL [6]: 100%
- mortality at 2 µg/mL [7]: 40%
- mortality at 50 µg/mL [8]: 30%
- mortality at 100 µg/mL [9]: 100%
- mortality at 200 µg/mL [10]: 100%
- mortality at 25 µg/mL [11]: 90%
- mortality at 50 µg/mL [12]: 96%

SMILES: Cc1cc(Br)cc(C)c1NC(=O)c1cc(Br)nn1-c1ncccc1Cl
- mortality at 25 µg/mL [1]: 93%
- mortality at 50 µg/mL [2]: 89%
- mortality at 100 µg/mL [3]: 100%
- mortality at 200 µg/mL [4]: 100%
- mortality at 100 µg/mL [5]: 72%
- mortality at 200 µg/mL [6]: 89%
- mortality at 2 µg/mL [7]: 30%
- mortality at 10 µg/mL [13]: 30%
- mortality at 25 µg/mL [14]: 100%
- mortality at 50 µg/mL [8]: 100%
- mortality at 100 µg/mL [9]: 100%
- mortality at 200 µg/mL [10]: 100%
- mortality at 50 µg/mL [12]: 0%

SMILES: O=C(Nc1ccc(Cl)cc1)c1cc(Br)nn1-c1ncccc1Cl
- mortality at 25 µg/mL [1]: 100%
- mortality at 50 µg/mL [2]: 100%
- mortality at 100 µg/mL [3]: 100%
- mortality at 200 µg/mL [4]: 100%
- mortality at 100 µg/mL [5]: 98%
- mortality at 200 µg/mL [6]: 100%
- mortality at 2 µg/mL [7]: 10%
- mortality at 10 µg/mL [13]: 0%
- mortality at 25 µg/mL [14]: 70%
- mortality at 50 µg/mL [8]: 100%
- mortality at 100 µg/mL [9]: 100%
- mortality at 200 µg/mL [10]: 100%
- mortality at 25 µg/mL [11]: 97%
- mortality at 50 µg/mL [12]: 100%

SMILES: Cc1ccc(NC(=O)c2cc(Br)nn2-c2ncccc2Cl)c(C)c1
- mortality at 50 µg/mL [8]: 0%
- mortality at 100 µg/mL [9]: 70%
- mortality at 200 µg/mL [10]: 100%

SMILES: O=C(Nc1ccc(I)cc1)c1cc(Br)nn1-c1ncccc1Cl
- mortality at 2 µg/mL [7]: 100%
- mortality at 50 µg/mL [8]: 50%
- mortality at 100 µg/mL [9]: 100%
- mortality at 200 µg/mL [10]: 100%

SMILES: O=C(Nc1ccc(Cl)cc1[N+](=O)[O-])c1cc(Br)nn1-c1ncccc1Cl
- mortality at 2 µg/mL [7]: 40%
- mortality at 200 µg/mL [10]: 10%

SMILES: O=C(Nc1cccc(Cl)c1)c1cc(Br)nn1-c1ncccc1Cl
- mortality at 200 µg/mL [10]: 0%

SMILES: CCOc1ccc(NC(=O)c2cc(Br)nn2-c2ncccc2Cl)cc1
- mortality at 2 µg/mL [7]: 30%
- mortality at 100 µg/mL [9]: 0%
- mortality at 200 µg/mL [10]: 100%

SMILES: O=C(Nc1cc(Cl)ccc1Cl)c1cc(Br)nn1-c1ncccc1Cl
- mortality at 2 µg/mL [7]: 10%
- mortality at 200 µg/mL [10]: 0%

SMILES: Cc1cccc([N+](=O)[O-])c1NC(=O)c1cc(Br)nn1-c1ncccc1Cl
- mortality at 2 µg/mL [7]: 50%
- mortality at 50 µg/mL [8]: 20%
- mortality at 100 µg/mL [9]: 80%
- mortality at 200 µg/mL [10]: 100%

SMILES: Cc1cccc(C)c1NC(=O)c1cc(Br)nn1-c1ncccc1Cl
- mortality at 50 µg/mL [8]: 40%
- mortality at 100 µg/mL [9]: 80%
- mortality at 200 µg/mL [10]: 100%

SMILES: O=C(Nc1ccc(F)c(Cl)c1)c1cc(Br)nn1-c1ncccc1Cl
- mortality at 100 µg/mL [9]: 0%
- mortality at 200 µg/mL [10]: 100%

SMILES: CNC(=O)c1cc(Cl)cc(C)c1NC(=O)c1cc(Br)nn1-c1ncccc1Cl [CHLORANTRANILIPROLE]
- Activity [15]: Active
- mortality at 25 µg/mL [1]: 100%
- mortality at 50 µg/mL [2]: 100%
- mortality at 2 µg/mL [7]: 100%
- mortality at 5 µg/mL [16]: 100%
- mortality at 25 µg/mL [11]: 94%
- mortality at 50 µg/mL [12]: 100%

SMILES: O=C(Nc1ccc([N+](=O)[O-])cc1)c1cc(Br)nn1-c1ncccc1Cl
- mortality at 2 µg/mL [7]: 20%
- mortality at 50 µg/mL [8]: 20%
- mortality at 100 µg/mL [9]: 90%
- mortality at 200 µg/mL [10]: 100%

SMILES: Cc1cc([N+](=O)[O-])ccc1NC(=O)c1cc(Br)nn1-c1ncccc1Cl
- mortality at 2 µg/mL [7]: 40%
- mortality at 10 µg/mL [13]: 50%
- mortality at 25 µg/mL [14]: 80%
- mortality at 50 µg/mL [8]: 100%
- mortality at 100 µg/mL [9]: 100%
- mortality at 200 µg/mL [10]: 100%

SMILES: O=C(Nc1ccc([N+](=O)[O-])cc1Cl)c1cc(Br)nn1-c1ncccc1Cl
- Activity [15]: Active
- mortality at 25 µg/mL [1]: 65%
- mortality at 50 µg/mL [2]: 78%
- mortality at 100 µg/mL [3]: 86%
- mortality at 200 µg/mL [4]: 91%
- mortality at 100 µg/mL [5]: 72%
- mortality at 200 µg/mL [6]: 78%
- mortality at 2 µg/mL [7]: 80%
- mortality at 5 µg/mL [16]: 0%
- mortality at 10 µg/mL [13]: 80%
- mortality at 25 µg/mL [14]: 100%
- mortality at 50 µg/mL [8]: 100%
- mortality at 100 µg/mL [9]: 100%
- mortality at 200 µg/mL [10]: 100%
- mortality at 50 µg/mL [12]: 0%

SMILES: Cc1cc(Cl)cc(C)c1NC(=O)c1cc(Br)nn1-c1ncccc1Cl
- mortality at 25 µg/mL [1]: 94%
- mortality at 50 µg/mL [2]: 98%
- mortality at 100 µg/mL [3]: 100%
- mortality at 200 µg/mL [4]: 100%
- mortality at 100 µg/mL [5]: 100%
- mortality at 200 µg/mL [6]: 100%
- mortality at 2 µg/mL [7]: 30%
- mortality at 10 µg/mL [13]: 20%
- mortality at 25 µg/mL [14]: 80%
- mortality at 50 µg/mL [8]: 100%
- mortality at 100 µg/mL [9]: 100%
- mortality at 200 µg/mL [10]: 100%
- mortality at 25 µg/mL [11]: 94%
- mortality at 50 µg/mL [12]: 97%

SMILES: Cc1cc(Cl)cc([N+](=O)[O-])c1NC(=O)c1cc(Br)nn1-c1ncccc1Cl
- mortality at 25 µg/mL [1]: 92%
- mortality at 50 µg/mL [2]: 95%
- mortality at 100 µg/mL [3]: 100%
- mortality at 200 µg/mL [4]: 98%
- mortality at 100 µg/mL [5]: 89%
- mortality at 200 µg/mL [6]: 95%
- mortality at 2 µg/mL [7]: 20%
- mortality at 25 µg/mL [14]: 60%
- mortality at 50 µg/mL [8]: 100%
- mortality at 100 µg/mL [9]: 100%
- mortality at 200 µg/mL [10]: 100%
- mortality at 25 µg/mL [11]: 76%
- mortality at 50 µg/mL [12]: 84%

SMILES: O=C(Nc1ccc(F)cc1)c1cc(Br)nn1-c1ncccc1Cl
- mortality at 25 µg/mL [1]: 96%
- mortality at 50 µg/mL [2]: 92%
- mortality at 100 µg/mL [3]: 100%
- mortality at 200 µg/mL [4]: 95%
- mortality at 100 µg/mL [5]: 98%
- mortality at 200 µg/mL [6]: 100%
- mortality at 2 µg/mL [7]: 0%
- mortality at 25 µg/mL [14]: 50%
- mortality at 50 µg/mL [8]: 100%
- mortality at 100 µg/mL [9]: 100%
- mortality at 200 µg/mL [10]: 100%
- mortality at 25 µg/mL [11]: 88%
- mortality at 50 µg/mL [12]: 99%

SMILES: Cc1cc([N+](=O)[O-])cc(Cl)c1NC(=O)c1cc(Br)nn1-c1ncccc1Cl
- mortality at 10 µg/mL [13]: 30%
- mortality at 25 µg/mL [14]: 70%
- mortality at 50 µg/mL [8]: 100%
- mortality at 100 µg/mL [9]: 100%
- mortality at 200 µg/mL [10]: 100%

Source: ChEMBL document CHEMBL3045024, “Synthesis, structure and insecticidal activities of some novel amides containing N-pyridylpyrazole moeities” (2012)
